Source: patent US7071197B2, “N,N-disubstituted diazocycloalkanes” (Recordati S.A., priority 2002, dated 2006)
Like-named read-outs stand apart in the source and are kept apart here.

Assays:
[1] = molecular target: T1, human 5HT1A-serotonergic receptor (Homo sapiens, UniProt P08908); test: [3H]8-OH-DPAT radioligand binding to human recombinant 5-HT1A receptors; details: for Ki: [3H]8-OH-DPAT, HeLa cell membranes, read-out: Affinity: Ki
T1 construct: expressed in transfected cells
T1 sequence (P08908 1-422): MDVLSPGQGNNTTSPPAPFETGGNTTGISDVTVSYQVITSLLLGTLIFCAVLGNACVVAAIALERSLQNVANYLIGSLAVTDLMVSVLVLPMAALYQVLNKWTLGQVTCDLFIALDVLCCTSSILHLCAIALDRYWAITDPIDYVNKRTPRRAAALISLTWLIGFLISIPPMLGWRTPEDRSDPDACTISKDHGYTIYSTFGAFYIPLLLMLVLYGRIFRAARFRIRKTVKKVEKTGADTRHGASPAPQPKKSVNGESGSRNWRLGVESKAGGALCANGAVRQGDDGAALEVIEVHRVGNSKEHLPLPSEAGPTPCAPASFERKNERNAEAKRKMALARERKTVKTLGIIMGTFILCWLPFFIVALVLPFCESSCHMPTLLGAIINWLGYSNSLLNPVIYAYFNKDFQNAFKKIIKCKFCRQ
Protocol: (§1) A genomic clone coding for the human 5HT1A-serotonergic receptor was stably transfected in a human cell line (HeLa). HeLa cells were grown as monolayers in Dulbecco's modified Eagle medium (DMEM), containing 10% fetal bovine serum, gentamycin (0.1 mg/ml) and 5% carbon dioxide, at 37° C. The cells were detached from the growth flask at 95% confluence by a cell scraper and were lysed in cold 5 mM Tris and 5 mM EDTA buffer (pH 7.4). The homogenates were centrifuged at 40000×g×20 minutes and the pellets were resuspended in a small volume of cold 5 mM Tris and 5 mM EDTA buffer (pH 7.4) and immediately frozen and stored at −70° C. until use.
[^3H]8-OH-DPAT binding: on the day of experiment, the cell membranes were resuspended in incubation buffer: 50 mM Tris HCl (pH 7.4), 2.5 mM MgCl2, […] (Fargin et al., Nature 335, 358–360, 1988). The membranes were incubated in a final volume of 1 ml for 30 minutes at 30° C. with 1 nM [^3H]8-OH-DPAT, in the absence or presence of the test compounds. Non-specific binding was determined in the presence of 10 μM 5-HT. Incubation was stopped by addition of cold Tris-HCl buffer and rapid filtration through a 0.2%-polyethyleneimine-pretreated Whatman-GF/B or Schleicher-&-Schuell-GF52 filter.
The affinity of the tested compounds was evaluated as inhibition of specific binding of the radioligand to 5-HT1A receptors (IC50) by using the non-linear curve-fitting program (De Lean et al., Am. J. Physiol. 235, E97-E102, 1978). The IC50 value was converted to an affinity constant (Ki) by the equation of Cheng et al., Biochem. Pharmacol. 22, 3099–3108 (1973).

[2] = molecular target: T2, human cloned 5-HT1A receptors (Homo sapiens, UniProt P08908); test: [35S]GTPγS binding, membranes of HeLa cells transfected with human cloned 5-HT1A receptors; type: biochemical; details: 5-HT maximal stimulation taken as 100%
T2 construct: expressed in transfected cells
T2 sequence (P08908 1-422): T1 sequence (P08908 1-422)
Protocol: as §1
[^35S]GTPγS binding: on the experimental day, cell membranes from HeLa cells transfected with human cloned 5-HT1A receptors were resuspended in buffer pH 7.4 containing 20 mM HEPES, 3 mM MgCl2 and 120 mM NaCl (Stanton, J. A.; Beer, M. S. Eur. J. Pharmacol. 320, 267–275, 1997). The membranes were incubated with 10 μM GDP and decreasing concentrations of test drugs (from 100 μM to 0.1 nM) or decreasing concentrations of 5-HT (from 100 μM to 0.1 nM, reference curve) for 20 min at 30° C. in a final volume of about 0.25 ml. [^35S]GTPγS ([…] in 10 μl) was added to samples and incubated for a further 30 min at 30° C. Non-specific binding was determined in the presence of 10 μM GTPγS. The incubation was stopped by addition of ice-cold HEPES buffer and rapid filtration on Unifilter GF/C filters, using a Filtermate cell harvester (Packard). The filters were washed four times with total 1.2 ml of same buffer. Radioactivity was counted by liquid scintillation spectrometry with efficiency >90% (TopCount Packard). Stimulation of [^35S]GTPγS binding induced by the compounds tested was espressed as % increase in binding above basal value, being the maximal stimulation observed with 5-HT taken as 100%. The concentration-response curve of the agonistic activity was analyzed by non linear fitting program (De Lean et al., Am. J. Physiol. 235, E97-E102, 1978).
A stimulation of [^35S]GTPγS binding represented the functional correlate of the binding of an agonist compound at the 5-HT1A receptors. Stimulation induced by the endogenous ligand 5-HT was considered the maximal stimulation attainable.

[3] = test system: rhythmic bladder-voiding contractions in anaesthetised rats; test: Rhythmic bladder-voiding contractions induced by bladder filling in anaesthetised rats; type: in vivo, rat; details: for ED10 min (extrapolated dose inducing 10 minutes of disappearance of the contractions) / ED50: intravenous administration, anaesthetised rats; for ED50: Rattus norvegicus
Protocol: Female Sprague-Dawley rats weighing 225–275 g (Crl: CD® (SD) IGS BR, Charles River Italia) were used. The animals were housed with free access to food and water and maintained on a forced 12-hour alternating light-dark cycle at 22–24° C. for at least one week, except during the experiment. The activity on rhythmic bladder voiding contractions was evaluated according to the method of Dray (Dray J., Pharmacol. Methods, 13:157, 1985), with some modifications as in Guarneri (Guarneri, Pharmacol. Res. 27:173, 1993). Briefly, the rats were anaesthetised by subcutaneous injection of 1.25 g/kg (5 ml/kg) urethane, after which the urinary bladder was catheterised via the urethra using PE 50 polyethylene tubing filled with physiological saline. The catheter was tied in place with a ligature around the external urethral orifice and was connected to conventional pressure transducers (Statham P23 ID/P23 XL). […] The bladder was then filled via the recording catheter by incremental volumes of warm (37° C.) saline until reflex bladder-voiding contractions occurred (usually 0.81.5 ml). For intravenous injection of bioactive compounds, PE 50 polyethylene tubing filled with physiological saline was inserted into the jugular vein.
From the cystometrogram, the number of contractions recorded 15 minutes before (basal values) and after treatment, as well as the mean amplitude of these contractions (mean height of the peaks in mmHg), was evaluated.
Since most compounds produced an effect that was relatively rapid in onset and led to a complete cessation of bladder contractions, bioactivity was conveniently estimated by measuring the duration of bladder quiescence (i.e., the length of the time during which no contractions occurred). The number of tested animals showing a reduction in the number of contractions higher than 30% of that observed in the basal period was recorded too.
The extrapolated doses which induced a reduction in the number of contractions greater than 30% in 50% of the treated rats (ED50) were evaluated by the method of Bliss (Bliss C. I., Quart J. Pharm. Pharmacol. 11, 192–216, 1938).

| Structure (SMILES) | Ki [1] [nM] | Functional effect ([35S]GTPγS binding) [2] | also measured |
| --- | --- | --- | --- |
| COc1ccccc1N1CCN(CC[C@@H](c2ccccc2F)[C@@H](O)C2CCCCC2)CC1 [Ex. 2Y, 1-[(3S,4S)-4-cyclohexyl-4-hydroxy-3-(2-fluorophenyl)-butyl]-4-(2-methoxyphenyl)-piperazine] | 0.98 | Partial agonist | – |
| Cc1c(-c2ccccc2)oc2c(C(=O)OCCN3CCCCC3)cccc2c1=O [Flavoxate] | – | – | ED10 min (extrapolated dose inducing 10 minutes of disappearance of the contractions) [3]: >10 mg/kg |
| CCN(CC)CC#CCOC(=O)C(O)(c1ccccc1)C1CCCCC1 (stereo not shown) [Oxybutynin] | – | – | ED50 ([3]; n.a. = not active, no significant reduction of the height of the peaks, read-out: ED50 (amplitude) (extrapolated dose inducing a 30% reduction of amplitude of the contractions in 50% of treated rats)): 0.24 mg/kg; ED50 ([3]; read-out: ED50 (frequency) (extrapolated dose inducing a reduction of the number of contractions > 30% in 50% of treated rats)): > 10 mg/kg; blockade of bladder contractions ([3]; at 240 μg/kg): did not cause a blockade of bladder contractions; ED10 min (extrapolated dose inducing 10 minutes of disappearance of the contractions) [3]: 7.77 mg/kg |

More lines, main results first:

| Ki [1] [nM] | Functional effect ([35S]GTPγS binding) [2] | Structure (SMILES) | also measured |
| --- | --- | --- | --- |
| 0.29 | Neutral antagonist | O[C@@H](C1CCCCC1)[C@H](CCN1CCN(c2ccccc2OCC(F)(F)F)CC1)c1ccccc1F (racemic) [Ex. 3, 1-[(RS,SR)-4-cyclohexyl-4-hydroxy-3-(2-fluorophenyl)-butyl]-4-[2-(2,2,2-trifluoroethoxy)-phenyl]-piperazine] | – |
| 0.5 | Partial agonist | COc1ccccc1N1CCN(CC[C@@H](c2ccccc2F)[C@H](O)C2CCCCC2)CC1 [Ex. 1X, 1-[(3S,4R)-4-cyclohexyl-4-hydroxy-3-(2-fluorophenyl)-butyl]-4-(2-methoxyphenyl)-piperazine] | – |
| 0.29 | Neutral antagonist | COc1ccccc1N1CCN(CCC(c2ccccc2F)C(O)C2CCCCC2)CC1 (stereo not shown) [Ex. 2, 1-[(RR-SS)-4-cyclohexyl-4-hydroxy-3-(2-fluorophenyl)-butyl]-4-(2-methoxyphenyl)-piperazine] | potency at the 5-HT1A receptor compared with Ex. 5 ([1]; statistical signficance p<0.01): more potent than Ex. 5 |
| 0.68 | Neutral antagonist | OC(C1CCCCC1)C(CCN1CCN(c2ccccc2OCC(F)(F)F)CC1)c1ccccc1F (stereo not drawn) [Ex. 4, 1-[(RR,SS)-4-cyclohexyl-4-hydroxy-3-(2-fluorophenyl)-butyl]-4-[2-(2,2,2-trifluoroethoxy)-phenyl]-piperazine] | – |
